Reference: PubChem BioAssay AID2305 (GlaxoSmithKline (GSK), 2010)

Each compound was assayed on P. falciparum 3D7 growth, pLDH absorbance (assay: blood-stage malaria parasite growth potency – strain 3D7, dose response (AID 2305)).
Work on `O=C(Cn1c(CCc2cccc(F)c2F)nc(=O)c2ccccc21)N(CCCN1CCCCC1)Cc1ccc(-c2ccc(C(F)(F)F)cc2)cc1` yielded an IC50 of 760 nM.
For `Clc1cccc(Cl)c1CCNCC1CCN(CC2CCCCC2)CC1`, the IC50 was 210 nM.
`CCOC(=O)NC1=NC(C)(C)N(OCCCOc2ccc(C)cc2C)C(NC(=O)OCC)=N1` was tested, and the IC50 was 130 nM.
`O=S(=O)(NCCN1CCCC1)c1cccc(-c2ccc(CNCc3ccccc3)cc2)c1` showed an IC50 of 1000 nM.
`CC(=O)Nc1ccc2[nH]cc(C3CCN(CC4CCC(NC(=O)/C=C/c5ccc(Cl)c(Cl)c5)CC4)CC3)c2n1` (stereo not drawn) gave an IC50 of 260 nM.
In the case of `Cn1nc(-c2cccc(CN[C@@H]3CCc4ccc(O)cc43)c2)c2cnc(NCCCN3CCCC3)nc21`, the IC50 is reported as 830 nM.
In the case of `CC(Cc1ccc(OCc2ccccc2)cc1)NCC(O)c1cccc(Cl)c1` (stereo not drawn), the IC50 is reported as 550 nM.
Work on `CCc1nc2nc(C)cc(Nc3ccc(F)c(Cl)c3)n2n1` yielded an IC50 of 970 nM.
Compound `O=c1cc(NCCCCNCc2cccc(Cl)c2)[nH]c2ccccc12` has an IC50 of 740 nM.
Compound `CC(C)(C)[C@@H](Nc1ccc(C#N)c2ccccc12)C(=O)NC1(Cc2ccc(O)cc2)CCCC1` has an IC50 of 1440 nM.
In the case of `COc1ccc2c(NN=Cc3cccc(Cl)c3)cc(C)nc2c1`, the IC50 is reported as 730 nM.
`Cn1nc(-c2ccc(NC(=O)Nc3cc(C(F)(F)F)cc(C(F)(F)F)c3)c(F)c2)c2cnc(NCCN3CCOCC3)nc21` gave an IC50 of 800 nM.
With `Cc1[nH]c(C)c(-c2ccc(-c3ccc(C(F)(F)F)cc3C(F)(F)F)nc2)c(=O)c1Br` the IC50 was 190 nM.
With `O=C(Nc1ccc(Cl)cn1)c1sc2ccccc2c1O` the IC50 was 1040 nM.
`CCCc1nc2c(N3CC(NC(=O)/C=C/c4ccccc4)C3)cccc2n1C1CC1` was tested, and the IC50 was 550 nM.
`COc1ccc(-c2ccc(NC(=O)c3cccc(C#N)c3)cc2)cc1CN1CCC(O)CC1` gave an IC50 of 820 nM.
Compound `O=C1CCCN1CCCNCc1ccc(-c2ccc(-c3nc4ccc(C(F)(F)F)cc4[nH]3)s2)cc1` has an IC50 of 380 nM.
`Clc1ccc(-c2cc(-c3csc(NCCN4CCOCC4)n3)on2)c(Cl)c1` was tested, and the IC50 was 660 nM.
`c1ccc2[nH]c(-c3ccc(-c4ccc(CN5CCN(c6ccncc6)CC5)cc4)cc3)nc2c1` was tested, and the IC50 was 160 nM.
`Cc1cccc2[nH]c(-c3ccc(-c4ccc(CN5CCN(CCO)CC5)cc4)cc3)nc12` showed an IC50 of 600 nM.
With `CN1CCC(Oc2ccc(NC(=O)c3ccc4c(=O)n(Cc5ccccc5)cnc4c3)cc2Cl)CC1` the IC50 was 950 nM.
`CN(C)c1ccc(-c2nnc(Sc3ccc(C#N)c([N+](=O)[O-])c3)n2Cc2ccco2)cc1` was tested, and the IC50 was 850 nM.
For `c1cc(CNC2CCN(CC3CCCCC3)CC2)cc(-n2ccnc2)c1`, the IC50 was 650 nM.
With `O=C(Nc1ccccc1O)c1ccc(Oc2cccc(C(=O)Nc3ccccc3O)c2)cc1` the IC50 was 800 nM.
With `CN(C)CCOc1cc(NC(=O)Nc2ccc(-c3ccccc3)cc2Cl)ccc1I` the IC50 was 250 nM.
For `Cc1cc(Nc2cc(Cl)cc(Cl)c2)nc(N)n1`, the IC50 was 1140 nM.
In the case of `CCCN(CCC)C(=O)c1cc(C(=O)N[C@@H](Cc2ccccc2)[C@H](O)CNC(C)(C)c2cccc(OC)c2)cc(N2CCCCS2(=O)=O)c1`, the IC50 is reported as 30 nM.
Work on `Cc1ccccc1C1CCN(C2CCC(NC(=O)/C=C/c3cc(C(F)(F)F)ccc3F)CC2)CC1` (stereo not drawn) yielded an IC50 of 840 nM.
In the case of `O=C(/C=C/c1ccc2ccccc2c1)NCCCCCN1CCC(c2c[nH]c3ccccc23)CC1`, the IC50 is reported as 1230 nM.
Compound `O=C(NCC1CCC(C(=O)NC2CCCc3ccccc32)CC1)c1ccc(O)c(-c2ccc(Cl)c(Cl)c2)c1` (stereo not drawn) has an IC50 of 1020 nM.
`O=C(NCCCCN1CCC(c2ccc3ccccc3c2)CC1)c1ccc(NC(=O)c2ccc(Cl)cc2)cc1` was tested, and the IC50 was 230 nM.
In the case of `CCOC(=O)c1cn(CC)c2cc(O[C@@H]3CCN(C(=O)OC(C)(C)C)C3)ccc2c1=O`, the IC50 is reported as 290 nM.
With `Cc1cc(N(C)C)nc(Nc2ccc(NC(=O)C(C)Oc3ccccc3)cc2)n1` (stereo not drawn) the IC50 was 950 nM.
Work on `COc1cccc(NC(=O)Nc2cc(C)nc3ccccc23)c1` yielded an IC50 of 720 nM.
`O=[N+]([O-])c1cccc(CNCC2CCC(CNCc3cccc([N+](=O)[O-])c3)CC2)c1` (stereo not drawn) gave an IC50 of 140 nM.
`Cc1cc(Nc2cccc(C(F)(F)F)c2)nc(NCc2ccccc2)n1` gave an IC50 of 150 nM.
`COc1cc(C2Nc3ccc4ccccc4c3C3=C2C(=O)CC(C)(C)C3)ccc1Oc1ccc([N+](=O)[O-])cc1C#N` (stereo not drawn) was tested, and the IC50 was 660 nM.
Work on `O=C(C=Cc1ccc(F)cc1)N1CCN(S(=O)(=O)c2ccc(Cl)cc2)CC1` yielded an IC50 of 630 nM.
In the case of `Cc1ccccc1CN1CCCN(Cc2ccc(C(=O)Nc3ccc(C(C)(C)C)cc3)cc2)CC1`, the IC50 is reported as 860 nM.
Work on `Cc1ccc(NC(=O)c2ccc(CN3CCCN(CCC(C)C)CC3)cc2)cc1C` yielded an IC50 of 910 nM.
Work on `O=C1OC(c2ccccc2)(c2ccccc2)CN1CC1CCN(Cc2ccc(O)c(Cl)c2)CC1` yielded an IC50 of 820 nM.
`CCCCN(CCCC)Cc1cc(N(C)c2ccc([N+](=O)[O-])cn2)ccc1O` showed an IC50 of 540 nM.
For `Cc1cc(Nc2ccccc2)nc(Nc2ccccc2C)n1`, the IC50 was 1040 nM.
Work on `CC(=O)N(Cc1ccccc1-c1ccc(CNCCc2ccccc2)cc1)C1CCN(Cc2ccccc2)CC1` yielded an IC50 of 480 nM.
For `NC(N)=Nc1ccc(OCCCCCOc2ccc(N=C(N)N)cc2)cc1`, the IC50 was 190 nM.
`CS(=O)(=O)c1ccc(-c2cnc(N)c(-c3cccc(CO)c3)c2)cc1` showed an IC50 of 940 nM.
`c1csc(-c2nc(N3CCCCC3)ncc2-c2ccsc2)n1` gave an IC50 of 140 nM.
In the case of `Cc1ccc(Cn2nc(Cl)c(N3CCNCC3)cc2=O)cc1NC(=O)Nc1ccc(-c2ccccc2)cc1`, the IC50 is reported as 680 nM.
With `CCCCCCN1CCCN(Cc2ccc(C(=O)Nc3ccc(CC)cc3)cc2)CC1` the IC50 was 760 nM.
Compound `COc1cc(OC)nc(C(Sc2ccc(NC(=O)c3cccs3)cc2)c2ccccc2)n1` (stereo not drawn) has an IC50 of 60 nM.
Work on `Cc1ccccc1CCNC(=O)c1ccc(N2CCN(c3ccncc3)CC2)nc1` yielded an IC50 of 1390 nM.
`Cc1ccc(Nc2nc(NN=Cc3ccccc3[N+](=O)[O-])nc(Nc3ccc([N+](=O)[O-])cc3)n2)cc1C` gave an IC50 of 690 nM.
For `NS(=O)(=O)c1cccc(N=Cc2c(O)[nH]c3ccc(S(=O)(=O)Cc4c(Cl)cccc4Cl)cc23)c1`, the IC50 was 720 nM.
`O=C(Cc1cnc[nH]1)Nc1ccc(-c2cccc(-c3nc4ccc(F)cc4[nH]3)c2)cc1` showed an IC50 of 800 nM.
Compound `Cc1ccc(C(=O)Nc2ccc(Nc3ccnc4cc(-c5ccccn5)ccc34)cc2O)cc1` has an IC50 of 110 nM.
In the case of `O=C(Nc1cc(Cl)cc(Cl)c1)c1cc(Cl)c(=O)n(Cc2cccc(Cl)c2)c1`, the IC50 is reported as 750 nM.
`CC[C@H](C)CNC(=O)c1cncc(-c2ccc(CN(C)C3CCN(C)CC3)cc2)c1` was tested, and the IC50 was 990 nM.
`CCOc1ccc(Br)cc1/C=C/C(=O)Nc1ccc2c(c1)CN(C)CCC2` showed an IC50 of 820 nM.
In the case of `O=C(Nc1cccc(-c2csc(-c3nc4ccccc4[nH]3)c2)c1)c1cccnc1`, the IC50 is reported as 230 nM.
In the case of `CCn1ccc2c(N3CCCS3(=O)=O)cc(C(=O)N[C@@H](Cc3ccccc3)[C@H](O)CNC(C)(C)c3cccc(OC)c3)cc21`, the IC50 is reported as 40 nM.
With `CNCCc1c(O)ccc2ccccc12` the IC50 was 800 nM.
Work on `FC(F)(F)c1cccc(Nc2nc(-n3ccnc3)nc(-n3ccnc3)n2)c1` yielded an IC50 of 720 nM.
`CCC(C(=O)Nc1cc(=O)[nH]c2nc(-c3ccco3)nn12)c1ccccc1` (stereo not drawn) showed an IC50 of 840 nM.
For `CCCCN1CCCN(Cc2cccc(NC(=O)c3ccc(-c4ccccc4)cc3)c2)CC1`, the IC50 was 1030 nM.
Work on `Cc1cc2c(cc1C(F)(F)F)N(C(=O)Nc1cc(OCCN(C)C)cc(C(F)(F)F)c1)CC2` yielded an IC50 of 710 nM.
Work on `Cc1cc(NCCc2ccc(O)cc2)nc(NCC(c2ccccc2)c2ccccc2)n1` yielded an IC50 of 320 nM.
`Cc1cc(NC(=O)NCCN2CCC(NS(=O)(=O)c3cccc(Br)c3)C2)c2ccccc2n1` (stereo not drawn) gave an IC50 of 610 nM.
Work on `Cc1cc(OCC2CCCO2)c2cc(NC(=O)C(=O)Nc3ccc4nc(C)cc(OCC5CCCO5)c4c3)ccc2n1` (stereo not drawn) yielded an IC50 of 800 nM.
`c1ccc(Oc2cccc(Nc3ccnc4ccccc34)c2)cc1` gave an IC50 of 1110 nM.
With `COc1ccc(-c2ccc(CNC(=O)c3cccc(C#N)c3)c(F)c2)cc1CN1CCCN(C)CC1` the IC50 was 800 nM.
Work on `NC(N)=NC(=O)Nc1ccc(Cl)c(C(F)(F)F)c1` yielded an IC50 of 590 nM.
For `O=C(NC1CCN(Cc2ccccc2)CC1)c1ccc(-c2nc3cc(Cl)c(Cl)cc3[nH]2)s1`, the IC50 was 310 nM.
For `CC(C)c1ccc(Cn2cc(-c3ccncc3)c3cc(OCc4ccccc4)ccc32)cc1`, the IC50 was 710 nM.
For `CCOc1cc(Cl)c(C(C)NC(=O)c2cccc(OC)c2)cc1OCC` (stereo not drawn), the IC50 was 960 nM.
For `COc1c(C2CCN(CCCCNC(=O)c3noc(-c4ccc(C#N)cc4)n3)CC2)ccc2c1CCCC2`, the IC50 was 780 nM.
Work on `Cc1cccc(C(=O)Nc2ccnc(N3CCCN(Cc4cccc(O)c4)CC3)c2)c1` yielded an IC50 of 1210 nM.
In the case of `CCc1c(CCNCCCCCCNCCc2ccc(OC)cc2)ccc(OC)c1OC`, the IC50 is reported as 870 nM.
Compound `O=C(/C=C/c1ccc(Cl)c(Cl)c1)N1CCC(CN2CCC(c3c[nH]c4cc5c(cc34)OCO5)CC2)CC1` has an IC50 of 680 nM.
For `CCN1CCC(N2CCC(n3c(C)nc4cc(C(F)(F)F)ccc43)CC2)CC1`, the IC50 was 1020 nM.
Work on `Cc1cc(N[C@@H](Cc2ccccc2)C(=O)NCc2cccs2)nc(NCCc2ccc(F)cc2)n1` yielded an IC50 of 850 nM.
`Cc1cccc2[nH]c(-c3ccc(-c4ccc(NC(=O)C(C)CN5CCN(C)CC5)cc4)s3)nc12` (stereo not drawn) showed an IC50 of 730 nM.
In the case of `CNCCNCc1cccc(-c2cccc(-c3nc4ccc(C(F)(F)F)cc4[nH]3)c2)c1`, the IC50 is reported as 200 nM.
Work on `CN(C)CC(O)C(c1ccccc1)c1cccc(Br)c1` (stereo not drawn) yielded an IC50 of 160 nM.
`O=C(N[C@@H](CC1CCCCC1)C(=O)NC1CCCc2ccccc21)c1ccc(O)c(-c2cccc(C(F)(F)F)c2)c1` (stereo partly drawn) was tested, and the IC50 was 600 nM.
With `O=C(Nc1ccc(C(F)(F)F)cc1)c1cccc(S(=O)(=O)NC2CCN(Cc3ccccc3)C2)c1` (stereo not drawn) the IC50 was 1050 nM.
`CN(C)C(=O)CC(=O)NCc1cccc(Cl)c1` was tested, and the IC50 was 710 nM.
Compound `COc1ccc(CNCc2ccccc2)cc1-c1ccc(S(=O)(=O)NCCN2CCCC2)c(F)c1` has an IC50 of 1140 nM.
Work on `O=C(c1ccc(-c2cnc3[nH]cc(-c4ccc(C(=O)N5CCOCC5)cc4)c3c2)cc1)N1CCOCC1` yielded an IC50 of 1000 nM.
In the case of `Cc1cc(Nc2ccc(C(C)(C)C)cc2)c2[nH]ncc2n1`, the IC50 is reported as 1160 nM.
Work on `Cc1ccc(Nc2nccc(N(C)c3ccc4c(c3)nc(NC(=O)Cc3ccc(Cl)c(Cl)c3)n4C)n2)cc1S(N)(=O)=O` yielded an IC50 of 1110 nM.
For `Cc1ccc(NC(=O)c2ccc(CN3CCCN(Cc4cccc(O)c4)CC3)cc2)cc1F`, the IC50 was 590 nM.
For `CCc1cn(C)c2c(N3CCCC3=O)cc(C(=O)N[C@@H](Cc3ccccc3)[C@H](O)CNCc3cccc(OC)c3)cc12`, the IC50 was 780 nM.
In the case of `O=C(CSc1nccn1C1CCCCC1)Nc1cc(C(F)(F)F)ccc1Cl`, the IC50 is reported as 400 nM.
Work on `COc1cc2nc(NCc3cccc(CNC(=O)c4ccc(-c5ccc(C(C)=O)cc5)cc4)c3)nc(N)c2cc1OC` yielded an IC50 of 120 nM.
In the case of `CCCCOc1c(CCC)cc(Cc2cnc(N)nc2N)cc1CCC`, the IC50 is reported as 630 nM.
`COc1ccc2ncc(F)c(CCN3CC[C@@H](CNCc4ccc5c(c4C)OCCO5)C3)c2n1` gave an IC50 of 1030 nM.
Work on `CC[C@H](C)CNC(=O)c1ccc(-c2cccc(CN3CCC(N4CCCC4)CC3)c2)nc1` yielded an IC50 of 790 nM.
With `O=C(Nc1ccccc1)N(Cc1cccc(-c2ccc(CNCc3ccc4c(c3)OCO4)cc2)c1)C1CCN(Cc2ccccc2)CC1` the IC50 was 330 nM.
